Measured values: patent US20180008593A1 (Purdue Pharma L.P., priority 2005, published 2018)
Where “and” joins values, the source holds several entries; their conditions need not be identical. Equal entries are not always repeated. Where two headings read alike, the source gives them in different places.

Columns and labels:
[1] = system: patients with severe chronic pain; test: Laxative intake / mean laxative dose, Example 1; type: in vivo, human
Procedure: d) Laxative intake/mean laxative dose, which was calculated from the respective case report forms (CRF) entries. An analysis of the mean laxative dose during the last seven days was performed for patients who took only one laxative during the entire study. Entries from the medication record CRF page were used for all calculations (laxatives were identified by the WHO ATC Code A06A). For laxative intake number of days with laxation during the last 7 days and the percentage of days with laxation during the last 7 days were calculated for each study visit. In addition, the percentage of days with laxation during the whole maintenance phase and during the follow-up phase was calculated.

[2] = system: experimental human pain model, healthy volunteers; test: Pain-related evoked potentials (EEG) after CO2 stimulation of the nasal mucosa, Example 4; type: in vivo; details: for Magnitude of reduction of amplitude P1N1 at C4 compared to baseline: 60% CO2
Procedure: This was a single site, single dose, double blind, placebo-controlled, 5-treatment, 5-period, randomized, balanced crossover study in healthy adult male and female subjects. […] Subjects were allocated each of the 5 treatments described in the synopsis according to a random allocation schedule (RAS). There was a 7-day washout period
Analgesic effects were assessed by means of an experimental human pain model based on the chemosomatosensory pain-related cortical potentials (CSSEPs) and pain-ratings after specific phasic nociceptive stimulation of the nasal mucosa with gaseous CO2. In addition, intensity estimates of tonic pain produced by stimulation of the nasal mucosa with dry air at controlled flow and temperature were employed.
Within the present pain model, the following were used as indicators of analgesia: • post-treatment decrease in pain-ratings and/or • post-treatment decrease in amplitudes of pain-related evoked potentials and/or • post-treatment increase in latencies of pain-related evoked potentials, relative to the pretreatment values.
1. Base-to-peak amplitudes P1, N1 and P2, peak-to-peak amplitudes P1 N1 and N1P2 of pain related evoked potentials 2. Latencies P1, N1 and P2 of pain-related evoked potentials 3. Intensity estimates of phasic (C02-) pain 4. Intensity estimates of tonic pain
(§1) In the first 20 minutes, 40 phasic CO2-stimuli were applied (20 stimuli at a concentration of 70% and 20 at a concentration of 60%, interstimulus interval 30 s). In response to these stimuli, pain-related potentials and subjective intensity estimates were recorded.
(§2) CO2-stimuli were mixed in a constantly flowing air stream with controlled temperature (36.5° C.) and humidity (80% relative humidity) presented to the left nostril (stimulus duration 200 ms, interstimulus interval 30 s). […] During intervals between phasic stimuli subjects performed a simple tracking task on a video screen. Using a joystick, they had to keep a small square inside a larger one that randomly moved around.
The EEG was recorded from 5 positions of the international 10/20 system (Cz, C3, C4, Fz and Pz; see FIG. 40) referenced to linked earlobes (A1+A2). Possible eye blink artifacts were monitored from an additional site (Fp2/A1+A2). Stimulus linked EEG segments of 2040 ms duration were sampled with a frequency of 250 Hz (band pass 0.2-30 Hz, pre-stimulus period 512 ms). The recorded analog EEG segments were then converted to digital and filed electronically. The average value for each recording position was separately calculated, discarding all eye blink contaminated records. By this procedure pain-related evoked potentials were obtained in response to the painful CO2 stimuli. Base to peak amplitudes P1, N1 and P2, the peak to peak amplitudes P1 N1 and N1 P2 and the latencies of P1, […] and P2 were measured. Wherever the time of measurement was used in the data analysis, the mid-time of a session was taken. FIG. 40 presents the components of the pain-related evoked potentials.

[3] = system: experimental human pain model, healthy volunteers; test: Intensity estimates of phasic (CO2) pain, Example 4; type: in vivo; details: 70% CO2; 45 mg naloxone with 20 mg oxycodone
Procedure: as §1, with “recorded. Subsequently, tonic pain was induced for 16 minutes and subjects had to rate the intensity of the dull, burning pain.” for “recorded.”
as §2
Within 3-4 seconds after presentation of each CO2 stimulus, subjects compared the perceived intensity to a standard stimulus (70% v/v CO2) presented at the beginning of the first session of each trial day. […] The intensity of the standard stimulus was defined as 100 Estimation Units (EU). The mid-time of a session was regarded as time of measurement. Intensity estimates of the CO2 stimuli (60% and 70%) were evaluated separately for each concentration. On a trial day, the ratings of each post-treatment session were evaluated relative to base line values. […]

[4] = system: patients with severe chronic pain of tumour and non-tumour origin; details: for Mean Pain, Mean (SD) V3: V3 end of titration; for Mean Pain, Mean (SD) V5: V5 end of maintenance
Procedure: The pre-randomization phase consisted of screening and titration/run-in. Following screening, patients entered either a titration or run-in period. Patients with insufficient pain pre-treatment entered a minimum 2-week titration period and were individually titrated and stabilized at an oxycodone dose of 40 mg, 60 mg or 80 mg per day. Patients on stable oxycodone pre-treatment at screening (between 40-80 mg/day) and with concomitant constipation, entered a 1 week run-in period and were eligible for the maintenance phase without prior titration. For all patients, the dose of oxycodone could be adjusted during titration or run-in and investigators maintained compulsory telephone contact every 2nd day to assess pain control and make dose changes.
(§3) a) Mean Pain during the last 7 days prior to each visit, based on the patient's twice-daily assessment of pain intensity using the 0-100 numerical analogue scale (NAS) (0=no pain and 100=worst imaginable pain). Mean Pain was calculated for each study visit as the mean value of the daily mean values of all patient's diary entries from the last 7 days. b) Mean bowel function: patient's assessment, at each study visit, of bowel function during the last 7 days prior to each visit. Mean bowel function was calculated from the mean of the three 0-100 NAS scores: ease of defecation (0=easy/no difficulty, 100=severe difficulty), feeling of incomplete bowel evacuation (0=not at all, 100=very strong), and judgment of constipation (0=not at all, 100=very strong). Secondary efficacy variables of interest included among others: c) Global assessment of efficacy, tolerability and preference. […] Tolerability was measured using the same 0 to 7 numerical analogue scale.

[5] = system: bowel function of pain patients on oxycodone with need for laxatives; details: for Mean Bowel Function Score, Mean (SD) V3: V3 end of titration; for Mean Bowel Function Score, Mean (SD) V5: V5 end of maintenance
Procedure: as §3
Mean bowel function was calculated for each study visit from the mean of the three NAS values ease/difficulty of defecation, feeling of incomplete bowel evacuation and judgment of constipation.
In addition, two-sided 95% CIs (CI, confidence interval) for the difference in means between the treatment groups were provided. […] These analyses were performed for the ITT and PP populations.
The parameter estimates derived were taken to display a surface plot of the whole dose range investigated. Moreover, a contour plot of the bowel function with a granulation of 10 was performed.

[6] = oral administration; extensive first-pass-metabolism; cited from earlier work
[7] = system: rats physically dependent on oxycodone; test: Naloxone-precipitated withdrawal in oxycodone-dependent rats (Gellert-Holtzman global rating, graded and checked signs), Example 5; details: i.v.
Procedure: Rats were implanted with Alzet 2ML 1 osmotic minipumps infusing either saline vehicle or oxycodone at 1.5 mg/kg/h for 7 days as described above. […] The complete parametric design for oxycodone-pump implanted rats required testing rats with vehicle:vehicle and oxycodone:vehicle.
Signs of physical dependence were evaluated in rats intravenously administered the drugs, and then immediately placed back in their home cages for a 60-min observation period. […] The table is divided into Graded Signs and Checked Signs, and assigned a weighted factor. The rats were evaluated for these signs during the 60 min observation period, the scores were collected, and a combined Global Score was assigned to each rat. Data were analyzed by combining the graded signs of escape attempts and wet-dog shakes into a single score of Grades Signs during each 15-min interval for 60-min. Checked signs were analyzed during each 15-min interval for 60-min.
The rats were assessed in 15-min intervals for both graded and checked signs for a total of 60 min. The graded signs of escape attempts and wet-dog shakes were tallied, whereas, checked signs such as diarrhea, profuse salivation, chromodactorrhea, etc. were noted as being either absent or present during the 15-min period. Both graded and checked signs were assigned a numeric score based on studies by Gellert and Holtzman (1978), and the total value for each animal was added to provide a global rating.
The incidence of checked signs during opioid withdrawal was also analyzed statistically within each time interval at 0-15, 15-30, 30-45 and 45-60 minutes. The data was analyzed within each time interval using contingency table Person's Chi Square analysis (Sigma Stat Statistical Software, SPSS, Inc.) to evaluate the X2 value. X2 values exceeding the critical value for 7 of 14.1 were considered statistically significant intervals for that checked behavioral sign.

[8] = naloxone 10 mg/day + oxycodone 40-80 mg/day
[9] = naloxone 20 mg/day + oxycodone 40-80 mg/day
[10] = naloxone 40 mg/day + oxycodone 40-80 mg/day
[11] = ITT non-missing, naloxone 10 mg/day + oxycodone 40-80 mg/day
[12] = ITT non-missing, naloxone 20 mg/day + oxycodone 40-80 mg/day
[13] = ITT non-missing, naloxone 40 mg/day + oxycodone 40-80 mg/day
[14] = PP, naloxone 20 mg/day + oxycodone 40-80 mg/day
[15] = PP, naloxone 40 mg/day + oxycodone 40-80 mg/day
[16] = ITT/LOCF, naloxone 10 mg/day + oxycodone 40-80 mg/day
[17] = ITT/LOCF, naloxone 20 mg/day + oxycodone 40-80 mg/day
[18] = ITT/LOCF, naloxone 40 mg/day + oxycodone 40-80 mg/day

SMILES: C=CCN1CC[C@]23c4c5ccc(O)c4O[C@H]2C(=O)CC[C@@]3(O)[C@H]1C5 [Naloxone, naloxone]
- Mean number of days with laxative intake during the last 7 days prior to the end of maintenance [1, 8]: 2.6±3.34
- Percentage of days (mean±SD) with laxation during the entire maintenance phase [1, 8]: 36.5±33.50
- Mean number of days with laxative intake during the last 7 days prior to the end of maintenance [1, 9]: 2.0±3.14
- Percentage of days (mean±SD) with laxation during the entire maintenance phase [1, 9]: 31.3±41.38
- Mean number of days with laxative intake during the last 7 days prior to the end of maintenance [1, 10]: 1.6±2.93
- Percentage of days (mean±SD) with laxation during the entire maintenance phase [1, 10]: 27.8±41.25
- Magnitude of reduction of amplitude P1N1 at C4 compared to baseline ([2]; 20 mg oxycodone in combination with 5 mg naloxone): 24.5%
- Magnitude of reduction of amplitude P1N1 at C4 compared to baseline ([2]; 20 mg oxycodone in combination with 15 mg naloxone): 23.7%
- Dose of naloxone PR that does not significantly influence the analgesic effect (EEG) of oxycodone ([2]; based on 20 mg oxycodone PR): below 15 mg
- Intensity estimates of phasic pain stimuli, naloxone effect [3]: seemed to antagonize partly the oxycodone effect
- Mean Pain, Mean (SD) V3 [4, 11]: 35.9 (16.3)
- Mean Pain, Mean (SD) V3 [4, 12]: 39.8 (18.4)
- Mean Pain, Mean (SD) V5 [4, 11]: 37.2 (17.3)
- Mean Pain, Mean (SD) V5 [4, 12]: 37.5 (20.5)
- Mean Pain, Mean (SD) V5 [4, 13]: 38.7 (17.0)
- Mean Pain, Mean (SD) V3 [4, 14]: 40.1 (20.0)
- Mean Pain, Mean (SD) V3 [4, 15]: 39.0 (16.1)
- Mean Pain, Mean (SD) V5 ([4]; PP, naloxone 10 mg/day + oxycodone 40-80 mg/day): 38.8 (18.4)
- Mean Pain, Mean (SD) V5 [4, 14]: 36.1 (19.5)
- Mean Pain, Mean (SD) V5 [4, 15]: 38.7 (16.6)
- Mean Bowel Function Score, Mean (SD) V3 [5, 11]: 53.5 (22.2)
- Mean Bowel Function Score, Mean (SD) V3 [5, 12]: 51.3 (21.6)
- Mean Bowel Function Score, Mean (SD) V3 [5, 13]: 48.2 (20.6)
- Mean Bowel Function Score, Mean (SD) V5 [5, 11]: 40.3 (23.1)
- Mean Bowel Function Score, Mean (SD) V5 ([5]; ITT non-missing, naloxone 10 mg/day + oxycodone 40-80 mg/day, listed as naloxone): 40.3 (±23.09) and 40.3 (±23.1)
- Mean Bowel Function Score, Mean (SD) V5 [5, 12]: 31.3 (25.8)
- Mean Bowel Function Score, Mean (SD) V5 ([5]; ITT non-missing, naloxone 20 mg/day + oxycodone 40-80 mg/day, listed as naloxone): 31.3 (±25.82) and 31.3 (±25.8)
- Mean Bowel Function Score, Mean (SD) V5 [5, 13]: 26.1 (25.1)
- Mean Bowel Function Score, Mean (SD) V5 ([5]; ITT non-missing, naloxone 40 mg/day + oxycodone 40-80 mg/day, listed as naloxone): 26.1 (±25.08) and 26.1 (±25.1)
- Mean Bowel Function Score, Mean (SD) V3 [5, 16]: 53.6 (22.8)
- Mean Bowel Function Score, Mean (SD) V3 [5, 17]: 49.9 (23.1)
- Mean Bowel Function Score, Mean (SD) V3 [5, 18]: 47.7 (20.5)
- Mean Bowel Function Score, Mean (SD) V5 [5, 16]: 40.1 (24.7)
- Mean Bowel Function Score, Mean (SD) V5 [5, 17]: 33.2 (28.4)
- Mean Bowel Function Score, Mean (SD) V5 [5, 18]: 26.5 (25.7)
- Mean (±SD) bowel function ([5]; ITT, Visit 4, naloxone 10 mg/day + oxycodone 40-80 mg/day): 42.1 (±25.53)
- Mean (±SD) bowel function ([5]; ITT, Visit 4, naloxone 20 mg/day + oxycodone 40-80 mg/day): 34.2 (±30.04)
- Mean (±SD) bowel function ([5]; ITT, Visit 4, naloxone 40 mg/day + oxycodone 40-80 mg/day): 27.9 (±22.68)
- Mean (±SD) bowel function ([5]; ITT, end of follow-up (oxycodone only), former 40 mg naloxone group): 42.4 (±23.19)
- Mean (±SD) bowel function ([5]; PP, end of maintenance, naloxone 10 mg/day + oxycodone 40-80 mg/day): 39.4 (±23.44)
- Mean (±SD) bowel function ([5]; PP, end of maintenance, naloxone 20 mg/day + oxycodone 40-80 mg/day): 29.8 (±29.29)
- Mean (±SD) bowel function ([5]; PP, end of maintenance, naloxone 40 mg/day + oxycodone 40-80 mg/day): 29.6 (±28.34)
- Oral bioavailability [6]: < 3%
- Checked signs of withdrawal ([7]; oxycodone-pump rats, 60-min observation): the rats underwent robust withdrawal
- Graded withdrawal signs (escape attempts, wet-dog shakes) ([7]; oxycodone-pump rats, first 15-min): robust withdrawal that was short-lasting that ended within the first 15-min
- Graded withdrawal signs (escape attempts, wet-dog shakes) ([7]; oxycodone-pump rats, later intervals up to 45- to 60-min): no longer significantly present throughout the remainder of the experiment
- Signs of withdrawal ([7]; vehicle-pump rats): no signs of withdrawal were observed
